The values that follow are results of earlier work, collected in patent publication US20050101577A1, “2-alkylidene-19-nor-vitamin D derivatives for the treatment of rickets or vitamin D deficiency” (Pfizer Inc., priority 2003, published 2005).

This data set deals with intestinal calcium transport. Conditions: 260 pmol/day, only dose tested.

As to `C=C1/C(=C\C=C2/CCC[C@]3(C)[C@@H]([C@H](C)CCCC(C)(C)O)CC[C@@H]23)C[C@@H](O)C[C@@H]1O` [1,25-(OH)2D3, 1,25-dihydroxyvitamin D3], the “intestinal calcium transport (in words)” value is on record as “expected elevation of intestinal calcium transport”.
